According to patent US5093480A, “Azoxy compounds” (Kowa Company, Ltd., priority 1988, dated 1992):
≈ marks a conversion by molar mass, not a printed value.

What was measured:
Cystococcus neoformans = test: Minimum inhibitory concentration, agar dilution method, Cystococcus neoformans; format: cell-based; details: Sabouraud's dextrose medium
Description: (§1) The minimum inhibitory concentrations (μg/ml), relative to test fungi, of some of the typical compounds in this invention produced in Examples to be described later were measured, and the results are tabulated below.
(§2) *The minimum inhibitory concentrations were measured by an agar dilution
(§3) method using a Sabouraud's dextrose medium in accordance with a standard
(§4) method of Nippon Kagaku Ryoho Gakkai (Chemical Therapy Academy).

[1] = system: Trichophyton mentagrophytes; test: Minimum inhibitory concentration, agar dilution method, Trichophyton mentagrophytes; format: cell-based; details: Sabouraud's dextrose medium; for MIC: Trichophyton mentagrophytes
Description: as §1, §2, §3, §4

Trichophyton rubrus = test: Minimum inhibitory concentration, agar dilution method, Trichophyton rubrus; format: cell-based; details: Sabouraud's dextrose medium; for MIC: Trichophyton
Description: as §1, §2, §3, §4

Candida albicans = test: Minimum inhibitory concentration, agar dilution method, Candida albicans; format: cell-based; details: Sabouraud's dextrose medium; for MIC: Candida albicans
Description: as §1, §2, §3, §4

Acute toxicity to mice = details: mouse, in vivo, intravenous administration
Description: The compound in this invention is low in toxicity. For example, acute toxicities LD50 to mice of the compounds in Examples 1 and 4 to be described later are both more than 100 mg/kg (intravenous administration).

[2] = Stability in serum (thin layer chromatography and biological verification using Candida albicans); format: in vitro ADME; details: left to stand in serum at 37° C. for 4 hours; TLC and biological verification using Candida albicans

2-(2,4-dichlorodiphenylacetylhydrazono)-2-dioxo-KA-7367A [Example 79]
Minimum inhibitory concentration, Cystococcus neoformans (Cystococcus neoformans): 6.25 µg/mL
Minimum inhibitory concentration, Trichophyton mentagrophytes [1]: 3.1 µg/mL
Minimum inhibitory concentration, Trichophyton rubrus (Trichophyton rubrus): 1.6 µg/mL
Minimum inhibitory concentration, Candida albicans (Candida albicans): 1.6 µg/mL

2-thenoylhydrazono-2-deoxo-KA-7367A [Example 68]
Minimum inhibitory concentration, Cystococcus neoformans (Cystococcus neoformans): 6.25 µg/mL
Minimum inhibitory concentration, Trichophyton mentagrophytes [1]: 6.25 µg/mL
Minimum inhibitory concentration, Trichophyton rubrus (Trichophyton rubrus): 6.25 µg/mL
Minimum inhibitory concentration, Candida albicans (Candida albicans): 3.2 µg/mL

CCCC/C=C/[N+]([O-])=NC(C)C(C)=NO (stereo not shown) [Example 1, 2-hydroxyimino-2-deoxo-KA-7367A]
MIC (Cystococcus neoformans): 25 µg/mL (≈ 117 µM)
LD50 (Acute toxicity to mice): > 100 mg/kg
MIC [1]: 12.5 µg/mL (≈ 58.6 µM)
MIC (Trichophyton rubrus): 3.1 µg/mL (≈ 14.5 µM)
MIC (Candida albicans): 12.5 µg/mL (≈ 58.6 µM)

CCCC/C=C/[N+]([O-])=NC(C)C(C)=NOCCOCC (stereo not shown) [Example 3, 2-(2-ethoxy-ethoxyimino)-2-dioxo-KA-7367A]
MIC (Cystococcus neoformans): 50 µg/mL (≈ 175 µM)
MIC [1]: 25 µg/mL (≈ 87.6 µM)
MIC (Trichophyton rubrus): 6.25 µg/mL (≈ 21.9 µM)
MIC (Candida albicans): 25 µg/mL (≈ 87.6 µM)

CCCC/C=C/[N+]([O-])=NC(C)C(C)=NOCC(=O)O (stereo not shown) [Example 4, 2-carboxymethoxyimino-2-deoxo-KA-7367A]
MIC (Cystococcus neoformans): 25 µg/mL (≈ 92.1 µM)
LD50 (Acute toxicity to mice): > 100 mg/kg
MIC [1]: 12.5 µg/mL (≈ 46.1 µM)
MIC (Trichophyton rubrus): 3.1 µg/mL (≈ 11.4 µM)
MIC (Candida albicans): 12.5 µg/mL (≈ 46.1 µM)

CCCC/C=C/[N+]([O-])=NC(C)C(C)=NOC(C)(C)C(=O)O (stereo not shown) [Example 5, 2-(1-carboxy-1-ethylmethoxyimino)-2-deoxo-KA-7367A]
MIC (Cystococcus neoformans): 25 µg/mL (≈ 83.5 µM)
MIC [1]: 12.5 µg/mL (≈ 41.8 µM)
MIC (Trichophyton rubrus): 3.1 µg/mL (≈ 10.4 µM)
MIC (Candida albicans): 12.5 µg/mL (≈ 41.8 µM)

CCCC/C=C/[N+]([O-])=NC(C)C(C)=NOC(C)=O (stereo not shown) [Example 24, 2-acetoxyimino-2-deoxo-KA-7367A]
MIC (Cystococcus neoformans): 50 µg/mL (≈ 196 µM)
MIC [1]: 12.5 µg/mL (≈ 49 µM)
MIC (Trichophyton rubrus): 6.25 µg/mL (≈ 24.5 µM)
MIC (Candida albicans): 25 µg/mL (≈ 97.9 µM)

CCCC/C=C/[N+]([O-])=NC(C)C(C)=NOC(=O)c1ccccc1 (stereo not shown) [Example 25, 2-benzoyloxyimino-2-deoxo-KA-7367A]
MIC (Cystococcus neoformans): 50 µg/mL (≈ 158 µM)
MIC [1]: 12.5 µg/mL (≈ 39.4 µM)
MIC (Trichophyton rubrus): 3.1 µg/mL (≈ 9.77 µM)
MIC (Candida albicans): 50 µg/mL (≈ 158 µM)

CCCC/C=C/[N+]([O-])=NC(C)C(C)=NOC(=O)c1ccc(Cl)cc1 (stereo not shown) [Example 27, 2-(p-chlorobenzoyloxyimino)-2-deoxo-KA-7367A]
MIC (Cystococcus neoformans): 100 µg/mL (≈ 284 µM)
MIC [1]: 12.5 µg/mL (≈ 35.5 µM)
MIC (Trichophyton rubrus): 6.25 µg/mL (≈ 17.8 µM)
MIC (Candida albicans): 100 µg/mL (≈ 284 µM)

CCCC/C=C/[N+]([O-])=NC(C)C(C)=NNC(N)=O (stereo not shown) [Example 34, 2-semicarbazono-2-deoxo-KA-7367A]
MIC (Cystococcus neoformans): 3.1 µg/mL (≈ 12.1 µM)
MIC [1]: 3.1 µg/mL (≈ 12.1 µM)
MIC (Trichophyton rubrus): 1.6 µg/mL (≈ 6.27 µM)
MIC (Candida albicans): 3.1 µg/mL (≈ 12.1 µM)

CCCC/C=C/[N+]([O-])=NC(C)C(C)=NNC(N)=S (stereo not shown) [Example 35, 2-thiosemicarbazono-2-deoxo-KA-7367A]
MIC (Cystococcus neoformans): 6.25 µg/mL (≈ 23 µM)
MIC [1]: 6.25 µg/mL (≈ 23 µM)
MIC (Trichophyton rubrus): 3.1 µg/mL (≈ 11.4 µM)
MIC (Candida albicans): 3.1 µg/mL (≈ 11.4 µM)

CCCC/C=C/[N+]([O-])=NC(C)C(C)=NNC(C)=O (stereo not shown) [Example 43, 2-acetylhydrazono-2-deoxo-KA-7367A]
MIC (Cystococcus neoformans): 3.1 µg/mL (≈ 12.2 µM)
MIC [1]: 6.25 µg/mL (≈ 24.6 µM)
MIC (Trichophyton rubrus): 3.1 µg/mL (≈ 12.2 µM)
MIC (Candida albicans): 1.6 µg/mL (≈ 6.29 µM)

CCCC/C=C/[N+]([O-])=NC(C)C(C)=NNC(=O)Cn1ccnc1 (stereo not shown) [Example 47, 2-(1-imidazolylacetylhydrazono)-2-deoxo-KA-7367A]
MIC (Cystococcus neoformans): 50 µg/mL (≈ 156 µM)
MIC [1]: 25 µg/mL (≈ 78 µM)
MIC (Trichophyton rubrus): 12.5 µg/mL (≈ 39 µM)
MIC (Candida albicans): 6.25 µg/mL (≈ 19.5 µM)

CCCC/C=C/[N+]([O-])=NC(C)C(C)=NNC(=O)Cc1cccnc1 (stereo not shown) [Example 48, 2-(3-pyridylacetylhydrazono)-2-deoxo-KA-7367A]
MIC (Cystococcus neoformans): 6.25 µg/mL (≈ 18.9 µM)
MIC [1]: 3.1 µg/mL (≈ 9.35 µM)
MIC (Trichophyton rubrus): 1.6 µg/mL (≈ 4.83 µM)
MIC (Candida albicans): 1.6 µg/mL (≈ 4.83 µM)

CCCC/C=C/[N+]([O-])=NC(C)C(C)=NNC(=O)Cc1ccc(Cl)cc1Cl (stereo not shown) [Example 49, 2-(2,4-dichlorophenylacetylhydrzono)-2-deoxo-KA-7367A]
MIC (Cystococcus neoformans): 6.25 µg/mL (≈ 15.7 µM)
MIC [1]: 3.1 µg/mL (≈ 7.76 µM)
MIC (Trichophyton rubrus): 1.6 µg/mL (≈ 4.01 µM)
MIC (Candida albicans): 1.6 µg/mL (≈ 4.01 µM)

CCCC/C=C/[N+]([O-])=NC(C)C(C)=NNC(=O)Cc1cccc2ccccc12 (stereo not drawn) [Example 52, 2-(alpha-naphthylacetylhydrazono)-2-deoxo-KA-7367A]
MIC (Cystococcus neoformans): 12.5 µg/mL (≈ 32.9 µM)
MIC [1]: 6.25 µg/mL (≈ 16.4 µM)
MIC (Trichophyton rubrus): 3.1 µg/mL (≈ 8.15 µM)
MIC (Candida albicans): 3.1 µg/mL (≈ 8.15 µM)

CCCC/C=C/[N+]([O-])=NC(C)C(C)=NNC(=O)CN1CCN(C(C)=O)CC1 (stereo not shown) [Example 53, 2-(4-acetylpiperazinyl-acetylhydrazono)-2-deoxo-KA-7367A]
MIC (Cystococcus neoformans): 12.5 µg/mL (≈ 32.9 µM)
MIC [1]: 6.25 µg/mL (≈ 16.4 µM)
MIC (Trichophyton rubrus): 3.1 µg/mL (≈ 8.15 µM)
MIC (Candida albicans): 3.1 µg/mL (≈ 8.15 µM)

CCCC/C=C/[N+]([O-])=NC(C)C(C)=NNC(=O)CN1CCN(C(=O)Cc2c(Cl)cccc2Cl)CC1 (stereo not shown) [Example 54, 2-[4-(2,6-dichlorophenylacetyl)-1-piperazinylacetylhydrazino]-2-deoxo-KA-7367A]
MIC (Cystococcus neoformans): 12.5 µg/mL (≈ 23.8 µM)
MIC [1]: 6.25 µg/mL (≈ 11.9 µM)
MIC (Trichophyton rubrus): 3.1 µg/mL (≈ 5.9 µM)
MIC (Candida albicans): 3.1 µg/mL (≈ 5.9 µM)

CCCC/C=C/[N+]([O-])=NC(C)C(C)=NNC(=O)Cc1c(F)cccc1F (stereo not shown) [Example 61, 2-[(2,6-difluorophenyl)acetylhydrazono]-2-deoxo-KA-7367A]
MIC (Cystococcus neoformans): 6.25 µg/mL (≈ 17.1 µM)
MIC [1]: 3.1 µg/mL (≈ 8.46 µM)
MIC (Trichophyton rubrus): 1.6 µg/mL (≈ 4.37 µM)
MIC (Candida albicans): 0.8 µg/mL (≈ 2.18 µM)

CCCC/C=C/[N+]([O-])=NC(C)C(C)=NNC(=O)Cc1c(OC)cccc1OC (stereo not shown) [Example 62, 2-[(2,6-dimethoxyphenyl)acetylhydrazono]-2-deoxo-KA-7367A]
MIC (Cystococcus neoformans): 12.5 µg/mL (≈ 32 µM)
MIC [1]: 6.25 µg/mL (≈ 16 µM)
MIC (Trichophyton rubrus): 3.1 µg/mL (≈ 7.94 µM)
MIC (Candida albicans): 1.6 µg/mL (≈ 4.1 µM)

CCCC/C=C/[N+]([O-])=NC(C)C(C)=NNC(=O)c1ccco1 (stereo not shown) [Example 67, 2-(2-furylcarbonylhydrazono)-2-deoxo-KA-7367A]
MIC (Cystococcus neoformans): 6.25 µg/mL (≈ 20.4 µM)
MIC [1]: 3.1 µg/mL (≈ 10.1 µM)
MIC (Trichophyton rubrus): 3.1 µg/mL (≈ 10.1 µM)
MIC (Candida albicans): 1.6 µg/mL (≈ 5.22 µM)

CCCC/C=C/[N+]([O-])=NC(C)C(C)=NNC(=O)c1ccncc1 (stereo not shown) [Example 70, 2-isonicotinoylhydrazono-2-deoxo-KA-7367A]
MIC (Cystococcus neoformans): 50 µg/mL (≈ 158 µM)
MIC [1]: 25 µg/mL (≈ 78.8 µM)
MIC (Trichophyton rubrus): 12.5 µg/mL (≈ 39.4 µM)
MIC (Candida albicans): 25 µg/mL (≈ 78.8 µM)

CCCC/C=C/[N+]([O-])=NC(C)C(C)=NNC(=O)c1cccnc1 (stereo not shown) [Example 71, 2-nicotinoylhydrazono-2-deoxo-KA-7367A]
MIC (Cystococcus neoformans): 12.5 µg/mL (≈ 39.4 µM)
MIC [1]: 6.25 µg/mL (≈ 19.7 µM)
MIC (Trichophyton rubrus): 6.25 µg/mL (≈ 19.7 µM)
MIC (Candida albicans): 6.25 µg/mL (≈ 19.7 µM)

CCCC/C=C/[N+]([O-])=NC(C)C(C)=NNC(=O)Cc1ccc(Cl)cc1 (stereo not shown) [Example 74, 2-(p-chlorophenylacetylhydrazono)-2-deoxo-KA-7367A]
MIC (Cystococcus neoformans): 6.25 µg/mL (≈ 17.1 µM)
MIC [1]: 6.25 µg/mL (≈ 17.1 µM)
MIC (Trichophyton rubrus): 3.1 µg/mL (≈ 8.5 µM)
MIC (Candida albicans): 1.6 µg/mL (≈ 4.39 µM)

CCCC/C=C/[N+]([O-])=NC(C)C(C)=NNC(=O)C(c1ccc(Cl)cc1)c1ccccc1Cl (stereo not shown) [Example 78, 2-(2,4'-dichlorodiphenylacetylhydrazono)-2-deoxo-KA-7367A]
MIC (Cystococcus neoformans): 6.25 µg/mL (≈ 13.1 µM)
MIC [1]: 3.1 µg/mL (≈ 6.52 µM)
MIC (Trichophyton rubrus): 3.1 µg/mL (≈ 6.52 µM)
MIC (Candida albicans): 0.8 µg/mL (≈ 1.68 µM)

CCCC/C=C/[N+]([O-])=NC(C)C(C)=O (stereo not shown) [KA-7367A]
decomposition in serum [2]: almost decomposed
